Assay results reported in ChEMBL document CHEMBL1201862, “PubChem BioAssay data set” (2004).
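Cells were grown in 96-well plates and exposed to each compound for 48 hours at five concentrations; endpoints were interpolated linearly between bracketing concentrations, or set to the highest concentration if not reached. The concentration for 50% growth inhibition is given as GI50.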 Active and inactive are the calls of the source. No stated cut-off is given here; in the data, active = GI50 up to about 1.1 µM and inactive = higher.

How the values were obtained:
Test in all cases: NCI-60 cell line screen, 48 h
[1] = test system: 786-0
[2] = test system: A498
[3] = test system: A549
[4] = test system: ACHN
[5] = test system: BT-549
[6] = test system: COLO 205
[7] = test system: DU-145
[8] = test system: HCC 2998
[9] = test system: HCT-116
[10] = test system: HCT-15
[11] = test system: HL-60
[12] = test system: HOP-62
[13] = test system: HOP-92
[14] = test system: HT-29
[15] = test system: Hs-578T
[16] = test system: IGROV-1
[17] = test system: K562
[18] = test system: KM12
[19] = test system: LOX IMVI
[20] = test system: M14
[21] = test system: MCF7
[22] = test system: MDA-MB-231
[23] = test system: MDA-MB-435
[24] = test system: MDA-N
[25] = test system: Malme-3M
[26] = test system: NCI-H226
[27] = test system: NCI-H23
[28] = test system: NCI-H460
[29] = test system: NCI/ADR-RES
[30] = test system: OVCAR-3
[31] = test system: OVCAR-4
[32] = test system: OVCAR-5
[33] = test system: RPMI-8226
[34] = test system: RXF 393
[35] = test system: SF-268
[36] = test system: SF-539
[37] = test system: SK-MEL-28
[38] = test system: SK-MEL-2
[39] = test system: SK-MEL-5
[40] = test system: SK-OV-3
[41] = test system: SN12C
[42] = test system: SNB-19
[43] = test system: SNB-75
[44] = test system: SR
[45] = test system: SW-620
[46] = test system: T47D
[47] = test system: TK-10
[48] = test system: U-251
[49] = test system: UACC-257
[50] = test system: UACC-62
[51] = test system: UO-31
[52] = test system: CAKI-1
[53] = test system: CCRF-CEM
[54] = test system: EKVX
[55] = test system: MOLT-4
[56] = test system: NCI-H522
[57] = test system: OVCAR-8
[58] = test system: SF-295

For `Cc1ccc(-c2cn3c(nc4ccccc43)c(/C=C/c3ccco3)n2)cc1`, the GI50 [1] was 48 µM (inactive), the GI50 [2] was > 100 µM (inactive) and the GI50 [3] was > 100 µM (inactive). For the same compound, the GI50 [4] was > 100 µM (inactive), the GI50 [5] was > 100 µM (inactive) and the GI50 [6] was 61.7 µM (inactive). The GI50 [7] was > 100 µM (inactive), the GI50 [8] was > 100 µM (inactive) and the GI50 [9] was > 100 µM (inactive). For the same compound, the GI50 [10] was over 100 µM, the GI50 [11] was 22.2 µM (inactive) and the GI50 [12] was > 100 µM (inactive). The GI50 [13] was > 100 µM (inactive), the GI50 [14] was > 100 µM (inactive) and the GI50 [15] was 31.9 µM (inactive). For the same compound, the GI50 [16] was 62.1 µM (inactive), the GI50 [17] was 37.7 µM (inactive) and the GI50 [18] was 50.1 µM (inactive). The GI50 [19] was 69.2 µM (inactive), the GI50 [20] was > 100 µM (inactive) and the GI50 [21] was 29.6 µM (inactive). The GI50 [22] was > 100 µM (inactive), the GI50 [23] was 29.2 µM (inactive) and the GI50 [24] was 42.1 µM (inactive). For the same compound, the GI50 [25] was 65.6 µM (inactive), the GI50 [26] was > 100 µM (inactive) and the GI50 [27] was 37 µM (inactive). The GI50 [28] was 58.1 µM (inactive), the GI50 [29] was > 100 µM (inactive) and the GI50 [30] was 49.8 µM (inactive). For the same compound, the GI50 [31] was 56.8 µM (inactive), the GI50 [32] was > 100 µM (inactive) and the GI50 [33] was 21 µM (inactive). For the same compound, the GI50 [34] was > 100 µM (inactive), the GI50 [35] was 59.7 µM (inactive) and the GI50 [36] was > 100 µM (inactive). The GI50 [37] was 58.1 µM (inactive), the GI50 [38] was 22.1 µM (inactive) and the GI50 [39] was 34.8 µM (inactive). The GI50 [40] was > 100 µM (inactive), the GI50 [41] was 86.9 µM (inactive) and the GI50 [42] was > 100 µM (inactive). The GI50 [43] was > 100 µM (inactive), the GI50 [44] was 19.6 µM (inactive) and the GI50 [45] was 47.6 µM (inactive). For the same compound, the GI50 [46] was 71.4 µM (inactive), the GI50 [47] was > 100 µM (inactive) and the GI50 [48] was 60.5 µM (inactive). For the same compound, the GI50 [49] was 82.6 µM (inactive), the GI50 [50] was > 100 µM (inactive) and the GI50 [51] was > 100 µM (inactive).
`NCCCN(CCCCN(CCCN)Cc1ccccc1)Cc1ccccc1` was tested, and the GI50 [1] was 23.1 µM (inactive), the GI50 [2] was > 100 µM (inactive) and the GI50 [3] was 74.5 µM (inactive). For the same compound, the GI50 [4] was 32.4 µM (inactive), the GI50 [5] was 79.6 µM (inactive) and the GI50 [52] was 15.8 µM (inactive). For the same compound, the GI50 [53] was 30.3 µM (inactive), the GI50 [6] was 32.4 µM (inactive) and the GI50 [7] was 42.2 µM (inactive). The GI50 [54] was 21.2 µM (inactive), the GI50 [8] was 10.8 µM (inactive) and the GI50 [9] was 30.8 µM (inactive). The GI50 [10] was over 100 µM, the GI50 [11] was > 100 µM (inactive) and the GI50 [13] was > 10 µM (inactive). The GI50 [14] was 17.3 µM (inactive), the GI50 [15] was 13 µM (inactive) and the GI50 [16] was 17.1 µM (inactive). The GI50 [17] was 54.2 µM (inactive), the GI50 [18] was 30.4 µM (inactive) and the GI50 [19] was 19.3 µM (inactive). For the same compound, the GI50 [20] was 41.6 µM (inactive), the GI50 [21] was 25.1 µM (inactive) and the GI50 [22] was > 100 µM (inactive). The GI50 [23] was 56.1 µM (inactive), the GI50 [24] was 18.4 µM (inactive) and the GI50 [55] was 20.1 µM (inactive). For the same compound, the GI50 [25] was 33.3 µM (inactive), the GI50 [26] was 21.2 µM (inactive) and the GI50 [27] was 42.2 µM (inactive). The GI50 [28] was 15.3 µM (inactive), the GI50 [56] was 10.9 µM (inactive) and the GI50 [29] was > 100 µM (inactive). For the same compound, the GI50 [31] was 28.6 µM (inactive), the GI50 [32] was 17.5 µM (inactive) and the GI50 [57] was 49.5 µM (inactive). The GI50 [33] was > 100 µM (inactive), the GI50 [34] was 85.3 µM (inactive) and the GI50 [35] was 14.3 µM (inactive). The GI50 [58] was 69 µM (inactive), the GI50 [36] was 27.6 µM (inactive) and the GI50 [37] was > 100 µM (inactive). For the same compound, the GI50 [39] was 57.8 µM (inactive), the GI50 [40] was 62.5 µM (inactive) and the GI50 [41] was 16 µM (inactive). The GI50 [42] was 10.7 µM (inactive), the GI50 [43] was 4.57 µM (inactive) and the GI50 [45] was > 100 µM (inactive). For the same compound, the GI50 [46] was > 100 µM (inactive), the GI50 [47] was > 100 µM (inactive) and the GI50 [48] was 42.3 µM (inactive). For the same compound, the GI50 [49] was 62.1 µM (inactive), the GI50 [50] was > 100 µM (inactive) and the GI50 [51] was 26.1 µM (inactive).
`c1ccc([P+](CCSCCSCC[P+](c2ccccc2)(c2ccccc2)c2ccccc2)(c2ccccc2)c2ccccc2)cc1` was tested, and the GI50 [1] was > 100 µM (inactive), the GI50 [2] was > 100 µM (inactive) and the GI50 [3] was > 100 µM (inactive). The GI50 [4] was > 100 µM (inactive), the GI50 [5] was > 100 µM (inactive) and the GI50 [6] was > 100 µM (inactive). For the same compound, the GI50 [7] was > 100 µM (inactive), the GI50 [54] was > 100 µM (inactive) and the GI50 [8] was > 100 µM (inactive). For the same compound, the GI50 [9] was > 100 µM (inactive), the GI50 [10] was over 100 µM and the GI50 [11] was > 100 µM (inactive). The GI50 [12] was > 100 µM (inactive), the GI50 [13] was > 100 µM (inactive) and the GI50 [14] was > 100 µM (inactive). The GI50 [15] was > 100 µM (inactive), the GI50 [16] was > 100 µM (inactive) and the GI50 [17] was 53.5 µM (inactive). The GI50 [18] was > 100 µM (inactive), the GI50 [20] was > 100 µM (inactive) and the GI50 [21] was 40.5 µM (inactive). The GI50 [22] was > 100 µM (inactive), the GI50 [23] was > 100 µM (inactive) and the GI50 [24] was > 100 µM (inactive). For the same compound, the GI50 [55] was > 100 µM (inactive), the GI50 [26] was > 100 µM (inactive) and the GI50 [27] was > 100 µM (inactive). The GI50 [28] was > 100 µM (inactive), the GI50 [29] was > 100 µM (inactive) and the GI50 [30] was > 100 µM (inactive). The GI50 [31] was > 100 µM (inactive), the GI50 [32] was > 100 µM (inactive) and the GI50 [57] was > 100 µM (inactive). For the same compound, the GI50 [34] was > 100 µM (inactive), the GI50 [35] was > 100 µM (inactive) and the GI50 [58] was 33 µM (inactive). The GI50 [36] was > 100 µM (inactive), the GI50 [37] was > 100 µM (inactive) and the GI50 [38] was > 100 µM (inactive). The GI50 [39] was > 100 µM (inactive), the GI50 [40] was > 100 µM (inactive) and the GI50 [41] was > 100 µM (inactive). The GI50 [42] was > 100 µM (inactive), the GI50 [43] was > 100 µM (inactive) and the GI50 [45] was > 100 µM (inactive). The GI50 [46] was > 100 µM (inactive), the GI50 [47] was > 100 µM (inactive) and the GI50 [48] was 24.7 µM (inactive). For the same compound, the GI50 [49] was > 100 µM (inactive), the GI50 [50] was 64.4 µM (inactive) and the GI50 [51] was > 100 µM (inactive).
